Test results: publication PMC7806714, “Statins for the prevention of proliferative vitreoretinopathy: cellular responses in cultured cells and clinical statin concentrations in the vitreous” (Scientific Reports, 2021)

Columns and labels:
[1] = UPLC-MS/MS statin and metabolite concentrations in vitreous of vitrectomy patients on oral statins; type: in vivo, human
Method: The study was conducted according to the tenets of the Declaration of Helsinki, and was approved by the Institutional Review Board and Ethical committee of Helsinki University Central Hospital. Twenty patients were enrolled; fifteen with per oral statin treatment and five controls. Signed informed consent was obtained from each participant prior to the vitreous sampling. Confidentiality of the patient records was maintained when the clinical data were entered into a computer-based standardized data entry for analysis. Sixteen patients were being operated due to PDR; of these, five patients had also Tractional Retinal Detachment (TRD); two patients were operated due to RRD, one due to age-related epiretinal fibrosis (pucker), and one due to a macular hole (Supplementary Table S2). […] All vitrectomies were performed by the recruiting vitreoretinal surgeon (SL). […] The samples were collected by manual aspiration into a syringe via the vitrectomy with the cutting function activated. Sample aliquots were transferred into sterile 1.5 mL microcentrifuge tubes (Freemont, CA, USA) and immediately frozen and stored at − 70 °C until laboratory analysis. […] All reference compounds and internal standards were purchased from Toronto Research Chemicals (Toronto, Canada). Samples (100 µl) were divided into two aliquots and kept at − 80 °C prior to analysis. […] Homogenizer blocks were pre-cooled by placing them at − 20 °C. […] Supernatants (120 µl) were pipetted into analytical vials and the concentrations of the statins were measured with Ultra-high Pressure Liquid Chromatography—tandem Mass Spectrometry (UPLC-MS/MS) technique. The same pre-treatment protocol was used to prepare calibration curves and quality control samples but homogenized and filtered porcine vitreous were used as a matrix instead of human vitreous. A minimum of six calibration curve concentrations was used for quantitation of the compounds. Two parallel calibration curve sets included all eleven analytes and four deuterated internal standards. Three quality control samples in three parallel sets were used to validate the method. The linear range varied from approximately 0.004 to 10 ng/mL depending on the analyte. Limit of quantitation was set to the smallest calibration curve point of each drug. Each sample was analysed twice and the average of these values was designated as the concentration of the sample. […] For rosuvastatin, two metabolites were analysed: rosuvastatin lactone and N-desmethyl rosuvastatin lactone. Rosuvastatin D6 was used as an internal standard. The parent drug, its metabolites and internal standard were analysed from the same sample in each case. Liquid chromatography separation was carried out using a Waters Acquity UPLC instrument (Waters, MA, USA) coupled with Waters HSS T3 C18 (2.1 × 100 mm, 1.8 µm) column at 40 °C. The mobile phase consisted of 0.1% formic acid in ultrapure water (A) and 100% of LC–MS grade acetonitrile (B). […] The flow rate was set to 0.3 mL/min and injection volume 1.5 µl. After every three samples, a solvent blank was run to control for any carry over. Mass spectrometry measurements were carried out using a Waters Xevo Triple Quadruple mass spectrometer (TQ-S) equipped with an ESI source. […] The source parameters were as follows: Capillary voltage 2.8 kV, source temperature 150 °C and desolvation temperature 500 °C. Nitrogen (Aga, Helsinki, Finland) was used as a desolvation gas (800 l/h), a cone gas (150 l/h) and a nebulizer gas (7 bar). Argon (Aga, Helsinki, Finland) was used as a collision gas (0.15 mL/min). The Multiple Reaction Monitoring (MRM) mode was used for quantification. Precursor and fragment ions, as well as other optimized parameters are listed in Supplementary Table S3.

ARPE-19 cells = assay: LDH release assay (cell membrane integrity); type: cell-based, human; conditions: with and without LPS; Supplementary Fig. S3
Method: Cell viability was assessed by determining the amount of LDH enzyme from culture media using a commercial kit (Promega Corporation, USA) according to the manufacturer’s protocol. This assay provides information about the integrity of the plasma membranes of the cells (high LDH levels meaning cell damage). In addition, the cell viability was examined with MTT assay, as described previously. In viable cells, the mitochondrial succinate dehydrogenase enzyme can metabolize the MTT dye into formazan that absorbs light at the 550 nm wavelength.

[2] = Calculated average steady-state plasma (Eq. 1) and expected vitreal concentrations (Eq. 3); design: species or system human; conditions: for Calc. Cv: expected vitreal, Eq. 3; for Css,av: plasma, Eq. 1
Method: The concentrations of statins and their metabolites in the vitreous were analysed (see above) and expressed as ng/mL concentrations. These concentrations were compared to published statin concentrations in plasma. […] Maximum concentrations in plasma and the area under the concentration vs time curve values were collected. The expected average statin concentrations in plasma during multiple dose treatment were calculated for the doses that the patients received in our study (Eq. 1):1 Css,av=AUCsingledose/τ where τ is the time interval between doses. The drug concentrations in plasma (C, Cmax, Css, av) include both unbound (Cu) and protein-bound drug. The values for protein binding were obtained from the summary of drug product characteristics for each statin. The free fraction of statin in plasma was calculated based on Eq. (2):2 fu=CuC
The expected drug concentrations in the patients’ vitreous samples were calculated according to Eq. (3)3 Cv=fu×Css,av
Equation (3) assumes that the vitreal drug concentrations equilibrate with the unbound drug concentrations in plasma, because only free drug is expected to cross the blood-ocular barriers.

IL-6 = assay: ELISA of LPS-induced IL-6 release from ARPE-19 cells; conditions: then LPS
IL-8 = assay: ELISA of LPS-induced IL-8 release from ARPE-19 cells; conditions: 24 h prior to LPS
MCP-1 = assay: ELISA of LPS-induced MCP-1 release from ARPE-19 cells; conditions: 24 h prior to LPS
[3] = patient 397, PDR, oral rosuvastatin 20 mg
[4] = patient 412, PDR, oral rosuvastatin 20 mg
[5] = patient 352, PDR, TDR, oral atorvastatin 20 mg
[6] = patient 355, PDR, oral atorvastatin 10 mg
[7] = patient 368, PDR, oral atorvastatin 40 mg
[8] = patient 429, RRD, oral atorvastatin 20 mg
[9] = patient 430, PDR, oral atorvastatin 20 mg

SMILES: CC(C)c1nc(N(C)S(C)(=O)=O)nc(-c2ccc(F)cc2)c1/C=C/[C@@H]1C[C@@H](O)CC(=O)O1 [Rsv lactone, rosuvastatin lactone]
- Concentration in vitreous sample [1, 3]: 0.011 ng/mL
- Concentration in vitreous sample [1, 4]: 0.025 ng/mL

SMILES: CC(C)c1c(C(=O)Nc2ccccc2O)c(-c2ccccc2)c(-c2ccc(F)cc2)n1CCC1CC(O)CC(=O)O1 (centres unmarked) [2-OH Atv lactone, 2-OH atorvastatin lactone]
- Concentration in vitreous sample [1, 5]: 0.023 ng/mL
- Concentration in vitreous sample [1, 6]: 0.029 ng/mL
- Concentration in vitreous sample [1, 7]: 0.063 ng/mL
- Concentration in vitreous sample [1, 8]: 0.023 ng/mL
- Concentration in vitreous sample [1, 9]: 0.032 ng/mL

SMILES: CC(C)c1nc(NS(C)(=O)=O)nc(-c2ccc(F)cc2)c1/C=C/[C@@H](O)C[C@@H](O)CC(=O)O [N-desmethyl Rsv, n-desmethyl rosuvastatin]
- Concentration in vitreous sample ([1]; patient 371, PDR, dose 0* (control without reported statin treatment)): 0.019 ng/mL
- Concentration in vitreous sample [1, 3]: 0.013 ng/mL
- Concentration in vitreous sample [1, 4]: 0.026 ng/mL

SMILES: CC(C)c1c(C(=O)Nc2ccccc2O)c(-c2ccccc2)c(-c2ccc(F)cc2)n1CCC(O)CC(O)CC(=O)O (centres unmarked) [2-OH Atv, 2-OH atorvastatin]
- Concentration in vitreous sample [1, 5]: 0.047 ng/mL
- Concentration in vitreous sample [1, 6]: 0.071 ng/mL
- Concentration in vitreous sample [1, 7]: 0.176 ng/mL
- Concentration in vitreous sample [1, 9]: 0.099 ng/mL

SMILES: CCC(C)(C)C(=O)O[C@H]1C[C@@H](C)C=C2C=C[C@H](C)[C@H](CC[C@@H](O)C[C@@H](O)CC(=O)O)[C@H]21 [Sim acid, simvastatin acid]
- Concentration in vitreous sample ([1]; patient 347, PDR, TDR, oral simvastatin 40 mg): 0.039 ng/mL
- Concentration in vitreous sample ([1]; patient 370, PDR, oral simvastatin 40 mg): 0.019 ng/mL
- Concentration in vitreous sample ([1]; patient A101, PDR, TDR, oral simvastatin 40 mg): 0.006 ng/mL

SMILES: CC(C)c1c(C(=O)Nc2ccc(O)cc2)c(-c2ccccc2)c(-c2ccc(F)cc2)n1CCC1CC(O)CC(=O)O1 (centres unmarked) [4-OH Atv lactone, 4-OH atorvastatin lactone]
- Concentration in vitreous sample [1, 6]: 0.012 ng/mL
- Concentration in vitreous sample [1, 7]: 0.039 ng/mL
- Concentration in vitreous sample [1, 8]: 0.008 ng/mL
- Concentration in vitreous sample [1, 9]: 0.017 ng/mL

SMILES: CC(C)c1c(C(=O)Nc2ccccc2)c(-c2ccccc2)c(-c2ccc(F)cc2)n1CC[C@@H]1C[C@@H](O)CC(=O)O1 [Atv lactone, atorvastatin lactone]
- Concentration in vitreous sample [1, 5]: 0.012 ng/mL
- Concentration in vitreous sample [1, 6]: 0.035 ng/mL
- Concentration in vitreous sample [1, 7]: 0.089 ng/mL
- Concentration in vitreous sample [1, 8]: 0.016 ng/mL
- Concentration in vitreous sample [1, 9]: 0.062 ng/mL

SMILES: CC(C)c1c(C(=O)Nc2ccc(O)cc2)c(-c2ccccc2)c(-c2ccc(F)cc2)n1CC[C@@H](O)C[C@@H](O)CC(=O)O [4-OH Atv, 4-OH atorvastatin]
- Concentration in vitreous sample [1, 5]: 0.022 ng/mL
- Concentration in vitreous sample [1, 6]: 0.057 ng/mL
- Concentration in vitreous sample [1, 7]: 0.209 ng/mL
- Concentration in vitreous sample [1, 8]: 0.022 ng/mL
- Concentration in vitreous sample [1, 9]: 0.12 ng/mL

SMILES: CC(C)c1c(C(=O)Nc2ccccc2)c(-c2ccccc2)c(-c2ccc(F)cc2)n1CC[C@@H](O)C[C@@H](O)CC(=O)O [Atorvastatin]
- Tolerance by ARPE-19 cells (LDH and MTT) (ARPE-19 cells): well tolerated
- Calc. Cv ([2]; 10 mg/d, India study [22]): 0.046 ng/mL
- Calc. Cv ([2]; 10 mg/d, Jordan study [21]): 0.024 ng/mL
- Calc. Cv ([2]; 10 mg/d, Turkey study [23]): 0.098 ng/mL
- Calc. Cv ([2]; 20 mg/d, China study [25]): 0.037 ng/mL
- Calc. Cv ([2]; 20 mg/d, UK study [26]): 0.153 ng/mL
- Calc. Cv ([2]; 20 mg/d, USA study [24]): 0.049 ng/mL
- Calc. Cv ([2]; 40 mg/d, Finland study [28]): 0.045 ng/mL
- Calc. Cv ([2]; 40 mg/d, Finland study [29]): 0.051 ng/mL
- Calc. Cv ([2]; 40 mg/d, USA study [27]): 0.082 ng/mL
- Css,av ([2]; 10 mg/d, Jordan study [21]): 0.49 ng/mL
- Css,av ([2]; 20 mg/d, China study [25]): 1.85 ng/mL
- Css,av ([2]; 20 mg/d, UK study [26]): 7.63 ng/mL
- Css,av ([2]; 40 mg/d, Finland study [28]): 2.26 ng/mL
- Css,av ([2]; 40 mg/d, Finland study [29]): 2.56 ng/mL
- Css,av ([2]; 40 mg/d, USA study [27]): 4.11 ng/mL
- times lower secretion of IL-6 compared to the solvent control (IL-6; 5 µM pre-treatment for 24 h): 1.5 times
- times lower secretion of IL-6 compared to the solvent control (IL-6; 10 µM pre-treatment for 24 h): 1.6 times
- LPS-induced release of IL-8 (IL-8; 5 µM): reduced
- LPS-induced release of IL-8 (IL-8; 10 µM): reduced
- LPS-induced release of MCP-1 (MCP-1; 5 µM): reduced
- LPS-induced release of MCP-1 (MCP-1; 10 µM): reduced
